Laboratory results published in patent US20250236589A1, “THERAPEUTIC PHENETHYLAMINE COMPOSITIONS AND METHODS OF USE” (Cybin IRL Limited, priority 2022, published 2025).
Like-named read-outs stand apart in the source and are kept apart here.

What was measured:
[1] = cited from earlier work
[2] = In vitro liver microsome stability (RLM); type: in vitro ADME; settings: rat, rat liver microsomes, 0.5 mg/mL microsomes, NADPH, read-out: RLM, t1/2
Description: In vitro stability was determined in Human (HLM), Rat (RLM), Mouse (MsLM), and dog (DLM) Liver Microsomes. All liver microsomes were purchased from a commercial supplier (e.g. XenoTech). The reaction mixture, minus NADPH, was prepared as described below. The test compound was added into the reaction mixture at a final concentration of 1 μM or co-dosed with their deuterated analog(s) at 1 μM each. The control compound, testosterone, was run simultaneously with the test compound in a separate reaction. The reaction mixture (without cofactor) was equilibrated in a shaking water bath at 37° C. for 5 minutes. The reaction was initiated by the addition of the cofactor, and the mixture was incubated in a shaking water bath at 37° C. Aliquots (150 μL) were withdrawn at 0, 5, 10, 20, 30, 60, and 120 minutes. Test compound and testosterone samples were immediately combined with 150 μL of ice-cold acetonitrile (ACN) containing 0.1% formic acid and internal standard to terminate the reaction. The samples were then mixed and centrifuged to precipitate proteins. All samples were assayed by LC-MS/MS using electrospray ionization. The peak area response ratio (PARR) of analyte to internal standard at each time point was compared to the PARR at time 0 to determine the percent remaining at each time point. Half-lives were calculated using GraphPad software, fitting to a single-phase exponential decay equation.

[3] = Plasma and brain concentrations after dosing in mice (screening); type: in vivo, mouse; settings: mouse; for concentration at 15 min / concentration at 160 min: sc, mice, 3 mg/kg s.c.; for Kp at 160 min: brain/plasma, subcutaneous, 3 mg/kg, 160 min after 3 mg/kg, read-out: brain/plasma ratio, 160 min
5-HT2A receptor [4] = target: T1, 5-HT2A receptor (Homo sapiens (Human), UniProt P28223); test: 5-HT2A radioligand competition binding ([3H]LSD or [3H]ketanserin)
human 5-HT2B receptor = human 5-HT2B receptor (Homo sapiens (Human), UniProt P41595); test: 5-HT2B functional assay, IP1 (IPOne); type: cell-based; settings: for Emax: IP1 assay
Sequence of human 5-HT2B receptor (P41595 whole entry, looked up): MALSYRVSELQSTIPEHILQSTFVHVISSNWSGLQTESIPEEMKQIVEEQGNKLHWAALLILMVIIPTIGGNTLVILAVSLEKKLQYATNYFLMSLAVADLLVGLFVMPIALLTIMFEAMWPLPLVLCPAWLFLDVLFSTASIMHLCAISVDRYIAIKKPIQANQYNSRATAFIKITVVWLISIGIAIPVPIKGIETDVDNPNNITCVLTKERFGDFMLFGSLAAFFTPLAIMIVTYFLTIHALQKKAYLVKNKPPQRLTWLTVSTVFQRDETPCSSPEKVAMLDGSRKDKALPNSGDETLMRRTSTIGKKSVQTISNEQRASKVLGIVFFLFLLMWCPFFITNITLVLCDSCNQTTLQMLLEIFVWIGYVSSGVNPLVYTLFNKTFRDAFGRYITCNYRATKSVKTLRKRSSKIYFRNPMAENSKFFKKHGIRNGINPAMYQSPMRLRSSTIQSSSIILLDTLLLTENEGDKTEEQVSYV
Description: 5-HT2A,2B,2C receptor-mediated Gq activation—canonical signaling pathways—[phosphoinositide hydrolysis leading to the production of inositol phosphate 1 (IP1, IPOne, Cisbio assay) or direct G-protein activation using TRUPATH technology]were measured as previously described (Porter, R. H. P., Benwell, K. R., Lamb, H., Malcolm, C. S., Allen, N. F., Revell, D. F., Adams, D. R. and Sheardown, M. J., 1999, Functional characterization of agonists at recombinant human 5-HT2a, 5HT2b and 5-HT2c receptors in CHO-K1 cells, Brit J Pharmacol 128, 13; Olsen, R. H. J., DiBerto, J. F., English, J. G. et al. TRUPATH, an open-source biosensor platform for interrogating the GPCR transducerome. […] Briefly, for the IPOne assay, for 5-HT2ARs, CHO-K1 or HEK-293 cells were incubated with test articles and 5-HT (positive control) in stimulation buffer containing LiCl. After incubation, cells were lysed and fluorescence acceptor and donor were added. FRET was measured after 60 min at room temperature using a microplate reader (Envision, Perkin Elmer). TRUPATH assays followed a similar workflow, except that different reagents were used, and LiCl was not included in the samples; the protocol was based on the report by Olsen, R. H. J. et al., cited above.

mice = test: Head-twitch response (HTR) screening in mice; type: in vivo, mouse; settings: mice, 3 mg/kg s.c.
Description: Protocols were followed according to Canal C E, Morgan D. Head-twitch response in rodents induced by the hallucinogen 2,5-dimethoxy-4-iodoamphetamine: a comprehensive history, a re-evaluation of mechanisms, and its utility as a model. […] Mice were housed in standard laboratory cages with ad libitum access to food and water and were acclimated to the vivarium for at least one week prior to testing in a procedure room. In a typical experiment, mice were injected 3 mg/kg of test article subcutaneously. Mice were placed immediately thereafter in a clear, polycarbonate box (46×20×20 cm), and HTRs were counted at various time points after administration using hand-held tally counters. In a separate experiment, plasma and brain samples were collected at 15 and 160 minutes after administration of test compounds to measure plasma and brain concentrations. Quantification was performed using LC-MS/MS method (LLOQ, 9 nM).

5-HT2A receptor [5] = target: T1, 5-HT2A receptor; test: 5-HT2A functional assay, IP1 (IPOne); type: cell-based; settings: for 2A/2B EC50 Selectivity / Emax: IP1 assay; for Emax: relative to 5-HT
Description: After incubation, cells were lysed and fluorescence acceptor and donor were added. FRET was measured after 60 min at room temperature using a microplate reader (Envision, Perkin Elmer). TRUPATH assays followed a similar workflow, except that different reagents were used, and LiCl was not included in the samples; the protocol was based on the report by Olsen, R. H. J. et al., cited above.

5-HT1A receptors = 5-HT1A receptors (Homo sapiens (Human), UniProt P08908); test: 5-HT1A radioligand binding ([3H]8-OH-DPAT); settings: for inhibition at 0.1 µM: 100 nM
Description: In another series of 5-HT1A,2A,2B radioligand competition binding assays, the conditions were as follows: For 5-HT1A assays, cell membrane homogenates (˜30 μg protein) derived from HEK-293 cells expressing human 5-HT1ARs were incubated with 0.5 nM [^3H]8-hydroxy-2-(di-n-propylamino)tetralin ([^3H]8-OH-DPAT) for 60 min at room temperature in the presence or absence of the test article. Non-specific binding was determined in the presence of 10 μM 8-OH-DPAT. Samples were then analyzed as described above, with only immaterial differences. […] Samples were then analyzed as described above.

[6] = brain, read-out: Brain, 160 min
[7] = plasma, read-out: Plasma, 15 min
[8] = plasma, read-out: Plasma, 160 min

Row | SMILES | concentration at 15 min ([3]; brain, read-out: Brain 15 min) | concentration at 160 min [3, 6] | Kp at 160 min [3] | concentration at 15 min [3, 7] | concentration at 160 min [3, 8] | affinity at 5-HT2A receptors (in words) (5-HT2A receptor [4]) | EC50 (human 5-HT2B receptor) | HTR 15-25 min (mice) | HTR 160-170 min (mice) | EC50 (5-HT2A receptor [5]) | 2A/2B EC50 Selectivity (5-HT2A receptor [5]) | Emax (5-HT2A receptor [5]) | inhibition at 0.1 µM (5-HT1A receptors) | inhibition at 1 µM (5-HT1A receptors) | other results
1 | COc1cc(OC)c(OC)cc1CCN [2C—O] | – | – | – | – | – | – | – | – | – | – | – | – | – | – | activity after oral administration [1]: inactive
2 | COc1cc(SCCC(F)F)c(OC)cc1CCN [Compound I-3, 2-(4-((3,3-difluoropropyl)thio)-2,5-dimethoxyphenyl)ethan-1-amine] | 670 nM | 510 nM | 9.3 | 700 nM | 55 nM | high affinity | 160 nM | 5 | 2.5 | 10 nM | 16 | 93% | 10% | 63% | half-life at 1 μM [2]: 1.85 h; Ki (5-HT2A receptor [4]): 44 nM; Ki (5-HT2A receptor [4]; read-out: 5-HT2A, Ki, [3H]LSD, high-affinity active state): 0.4 nM; Emax (human 5-HT2B receptor; constrained to 100%): 100%
3 | COc1cc(SC(F)F)c(OC)cc1CCN [Compound I-8, 2-(4-((difluoromethyl)thio)-2,5-dimethoxyphenyl)ethan-1-amine] | 1900 nM | 2200 nM | 74 | 300 nM | 30 nM | high affinity | 67.9 nM | 33.4 | 17.4 | 5.3 nM | 12.8 | 99% | 38% | 84% | Ki (5-HT2A receptor [4]; read-out: 5-HT2A, Ki, radioligand [3H]LSD): 6.3 nM; Emax (human 5-HT2B receptor; relative to 5-HT): 87%
